The nature of experiment [1]: Binding affinity to copper ion by Hildebrand-Benesi equation analysis.
Experiment [2] can be described thus: Binding affinity to zinc ion by UV-vis titration analysis.
The nature of experiment [3]: Binding affinity to cadmium ion by UV-vis titration analysis.
The nature of experiment [4]: Binding affinity to mercury ion by Hildebrand-Benesi equation analysis.
Experiment [5] in a line: Binding affinity to magnesium ion by UV-vis titration analysis.

The source made the active and inactive calls. No cut-off for these calls is given here.

Regarding `COC(=O)[C@@]1(C)CC[C@]2(C)CC[C@]3(C)C(=CC(=O)[C@@H]4[C@@]5(C)C[C@H](OC(=O)Cn6cc(COc7ccc8ccccc8c7C=O)nn6)[C@@H](OC(=O)Cn6cc(COc7ccc8ccccc8c7C=O)nn6)C(C)(C)[C@@H]5CC[C@]43C)[C@@H]2C1`, the Ka was 5 ×10³ /M in experiment [1] and 2.7 ×10⁴ /M in experiment [4]. Besides, the outcome in experiment [2], in experiment [3] and in experiment [5] was inactive.
Take `COC(=O)[C@@]1(C)CC[C@]2(C)CC[C@]3(C)C(=CC(=O)[C@@H]4[C@@]5(C)C[C@H](OC(=O)Cn6cc(COc7ccccc7C=O)nn6)[C@@H](OC(=O)Cn6cc(COc7ccccc7C=O)nn6)C(C)(C)[C@@H]5CC[C@]43C)[C@@H]2C1`: the Ka is 1.6 ×10³ /M in experiment [1] and 3 ×10⁴ /M in experiment [4]. In addition, the outcome in experiment [2], in experiment [3] and in experiment [5] was inactive.

Values taken from ChEMBL document CHEMBL1250456, “Synthesis and binding ability of 1,2,3-triazole-based triterpenoid receptors for recognition of Hg(2+) ion” (Bioorg Med Chem Lett, 2010).
